Data on eight molecules can be found in US5798093A (priority 1997, dated 1998).

A value given as a limit tells only on which side of the number the result lay.

For data set [1], the system named is Compound 48/80-induced scratching. Put plainly: Anti-pruritic activity, mouse scratch model (Compound 48/80-induced scratching). Type of data set: in vivo, mouse (male Swiss albino). The following applies: s.c.; for Mean % Inhibition of Scratching: Compound 48/80 challenge, 30 min; for antagonism of Compound 48/80-induced scratching (in words): dose-related. The method, then: Testing was performed in a mouse scratch model under blind conditions.
Groups of 8-10 male Swiss albino mice (Hilltop Lab Animals, Inc., Scottsdale, Pa.), weighing […], were used in the testing. They were housed under controlled temperature of 23-25° C. Food and water were freely available. Before the experiments, the mice were weighed, put into individual boxes and allowed to acclimate for 30 min.
Vehicle used to dissolve the test compounds: 20% w/w cremophor EL.
[…] of the vehicle (3-5 doses, n-8-10) was injected s.c. into the back of the neck of mice 20 min. before challenging them with 100 μl of Compound 48/80 (2 mg/ml; 50 μg) injected s.c. into the back of the neck.
To each mouse of a group of 8-10 mice previously subjected to the standard challenge various doses of the compounds, to be tested for anti-pruritic activity, were administered s.c. into the back of the neck.
For each group of 8-10 mice, the mean values for scratching were normalized to relative % antagonism of scratching and then plotted vs. dose of test compounds. Interval estimates of mean A50 were determined by nonlinear regression analysis (Kalcida Graph) and mean % inhibition of scratching was calculated.

Data set [2] concerns warm water induced tail withdrawal reflex / castor oil diarrhea. Particulars: po.
Description: Peripheral selectivity is defined by the ratio of the ED50 in the tail-withdrawal assay over the ED50 in the anti-diarrheal assay.
Measure of Centrally-Mediated Opiod Analgesia by the Tail-Withdrawal Assay (Janssen, P. A. J.; Niemegeers, C. J. E.; Dony, J. G. H., The Inhibitory effect of Fentanyl and other morphine-like analgesics on the warm water induced tail withdrawal reflex in rats. Arzneimittel-Forschung 1963, 13, 502-507.)
Young female Wistar rats (170-210 g body weight) are used only once. […] Around 8:30 AM the "normal" reaction time of each rat is determined by immersing the lower 5 cm portion of the tail in a cup freshly filled with water from a large constant temperature (55° C.) bath until the typical tail withdrawal response is observed. […] The reaction time is measured in 0.5 second units with a stopwatch. […] Periodically thereafter (i.e., 1/4, 1/2, 1, 2, 3, 4, 5 and 6 hours after dosage) the reaction time is again measured by trained technicians unaware of the nature of the compounds. Results of these studies are expressed as ED50 concentration values (mg/kg), calculated as the dose producing a tail withdrawal latency equal to half the difference between the maximum latency (≤15 seconds) and the baseline latency (6 to 8 seconds). […]
For data set [3] the following is noted: reported; antidiarrheal use; cited from earlier work.
A further data set concerns itch. The following applies: cited from earlier work.

As to `O=C(N1CCCCC1)C(CCN1CCC(O)(c2ccccc2)CC1)(c1ccccc1)c1ccccc1` [Compound 1, 1-[4-(4-Hydroxy-4-phenyl-1-piperidino)-2,2-diphenylbutyryl]piperidine], the “Mean % Inhibition of Scratching” value in data set [1] (2.5 mg/kg) was 32%; in data set [1] (5.0 mg/kg) it was 65%; in data set [1] (10.0 mg/kg) it was 83%. Moreover, the “antagonism of Compound 48/80-induced scratching (in words)” value (“antagonism” below) in data set [1] was “antagonized Compound 48/80-induced scratching in a dose-related manner”.

`CN(C)C(=O)C(CCN1CCC(O)(c2ccc(Br)cc2)CC1)(c1ccccc1)c1ccccc1` [Compound 3, 4-(p-Bromophenyl)-4-hydroxy-N,N-dimethyl-α,α-diphenyl-1-piperidinebutyramide]: the “antagonism” value in data set [1] is recorded as “antagonized Compound 48/80-induced scratching in a dose-related manner”.

On to `O=C(N1CCCC1)C(CCN1CCC(O)(c2ccc(Cl)c(Cl)c2)CC1)(c1ccccc1)c1ccccc1` [Compound 4], for which the “Peripheral Selectivity (ED50tw /ED50 Castor Oil)” value in data set [2] was > 640.

`CN(C)C(=O)C(CCN1CCC(O)(c2ccc(Cl)cc2)CC1)(c1ccccc1)c1ccccc1` [Compound 6, 4-(p-Chlorophenyl)-4-hydroxy-N,N-dimethyl-α,α-diphenyl-1-piperidinebutyramide]: the “CNS effects (in words)” value in data set [3] was “devoid of CNS effects”. Besides, the “antagonism” value in data set [1] is “antagonized Compound 48/80-induced scratching in a dose-related manner”.

In the case of `CN(C)C(=O)C(CCN1CCC(O)(c2ccc(Cl)cc2)CC1)(c1ccccc1)c1ccccc1.Cl` [Example 2, 4-(p-Chlorophenyl)-4-hydroxy-N,N-dimethyl-α,α-diphenylpiperidine-1-butyramide hydrochloride], the “CNS effects (in words)” value in data set [3] is given as “completely free of the undesirable CNS effects”.

`NCCc1c[nH]cn1` [histamine]: in the data set with itch (humans / application to skin), the “induction of itch (in words)” value is “produces itch but not pain”.

Take `CN1CC[C@]23c4c5ccc(O)c4O[C@H]2[C@@H](O)C=C[C@H]3[C@H]1C5` [morphine]: the “generalized itching, incidence” value with itch (i.v.) is “about 1 % of patients”.

Take cyclosporin A: the “inhibition of itch in atopic dermatitis (in words)” value in the data set on itch (atopic dermatitis) is “itch is not inhibited by antihistamines, but by cyclosporin A”.
